Experimental data as given in publication PMC7180948, “New Insights into 4-Anilinoquinazolines as Inhibitors of Cardiac Troponin I–Interacting Kinase (TNNi3K)” (Molecules, 2020).

Tests used:
Assay in all cases: biochemical
Design in all cases: KINOMEscan competition binding panel (Eurofins DiscoverX), single concentration, percent inhibition
Details in all cases: read-out: 15 at 1 µM % inhibition
[1] = target: HIPK3 (Homo sapiens, UniProt Q9H422)
Outline: (§1)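 KINOMEscan selectivity screen; >400 human kinases; compound at 1 µM, single concentration.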

[2] = target: EPHB2 (Homo sapiens, UniProt P29323)
Outline: as §1

[3] = target: GRK3 (Homo sapiens, UniProt P35626)
Chain of GRK3 (P35626 whole entry): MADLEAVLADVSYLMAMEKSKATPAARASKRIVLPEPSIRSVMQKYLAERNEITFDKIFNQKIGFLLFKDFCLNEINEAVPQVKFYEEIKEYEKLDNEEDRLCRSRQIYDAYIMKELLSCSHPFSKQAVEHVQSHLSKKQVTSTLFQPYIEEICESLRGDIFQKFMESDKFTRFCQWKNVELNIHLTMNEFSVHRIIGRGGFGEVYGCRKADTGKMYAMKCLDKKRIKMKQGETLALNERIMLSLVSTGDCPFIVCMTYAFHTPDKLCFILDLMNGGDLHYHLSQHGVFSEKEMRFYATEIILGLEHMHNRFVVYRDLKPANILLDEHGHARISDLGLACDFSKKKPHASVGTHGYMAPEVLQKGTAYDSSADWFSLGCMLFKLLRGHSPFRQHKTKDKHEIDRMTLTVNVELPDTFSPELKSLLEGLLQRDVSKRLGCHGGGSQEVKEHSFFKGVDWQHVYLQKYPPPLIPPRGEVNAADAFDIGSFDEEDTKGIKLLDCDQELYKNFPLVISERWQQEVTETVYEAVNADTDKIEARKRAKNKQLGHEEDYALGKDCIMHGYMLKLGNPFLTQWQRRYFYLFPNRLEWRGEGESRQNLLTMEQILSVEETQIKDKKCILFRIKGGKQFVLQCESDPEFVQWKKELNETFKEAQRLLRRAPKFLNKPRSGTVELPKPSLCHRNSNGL
Outline: as §1

[4] = target: T1, SIK (Homo sapiens, UniProt P57059)
T1 construct: gene SIK1
T1 sequence (P57059 whole entry): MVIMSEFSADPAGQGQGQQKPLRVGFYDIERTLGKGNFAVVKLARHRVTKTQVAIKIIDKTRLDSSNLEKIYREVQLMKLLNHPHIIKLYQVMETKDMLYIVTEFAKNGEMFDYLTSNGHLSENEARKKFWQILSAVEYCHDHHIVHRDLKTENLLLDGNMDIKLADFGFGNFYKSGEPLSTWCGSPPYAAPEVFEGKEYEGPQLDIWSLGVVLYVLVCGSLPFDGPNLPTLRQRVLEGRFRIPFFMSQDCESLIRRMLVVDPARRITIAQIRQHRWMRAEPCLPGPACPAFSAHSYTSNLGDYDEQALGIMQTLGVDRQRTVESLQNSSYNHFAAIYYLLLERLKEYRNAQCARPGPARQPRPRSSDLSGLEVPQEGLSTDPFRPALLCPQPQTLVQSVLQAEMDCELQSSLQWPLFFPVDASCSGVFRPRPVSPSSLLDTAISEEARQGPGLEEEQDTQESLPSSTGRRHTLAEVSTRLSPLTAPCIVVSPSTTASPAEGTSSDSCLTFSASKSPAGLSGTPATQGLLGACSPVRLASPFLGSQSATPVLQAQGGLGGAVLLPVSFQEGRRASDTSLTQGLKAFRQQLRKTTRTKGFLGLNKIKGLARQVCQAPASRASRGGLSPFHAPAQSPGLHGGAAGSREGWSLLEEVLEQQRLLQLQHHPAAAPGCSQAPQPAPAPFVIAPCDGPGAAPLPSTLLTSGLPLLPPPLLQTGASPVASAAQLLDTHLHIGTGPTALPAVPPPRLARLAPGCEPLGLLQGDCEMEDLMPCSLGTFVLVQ
Outline: as §1

[5] = target: PIK3CA (Homo sapiens, UniProt P42336)
Chain of PIK3CA (P42336 whole entry): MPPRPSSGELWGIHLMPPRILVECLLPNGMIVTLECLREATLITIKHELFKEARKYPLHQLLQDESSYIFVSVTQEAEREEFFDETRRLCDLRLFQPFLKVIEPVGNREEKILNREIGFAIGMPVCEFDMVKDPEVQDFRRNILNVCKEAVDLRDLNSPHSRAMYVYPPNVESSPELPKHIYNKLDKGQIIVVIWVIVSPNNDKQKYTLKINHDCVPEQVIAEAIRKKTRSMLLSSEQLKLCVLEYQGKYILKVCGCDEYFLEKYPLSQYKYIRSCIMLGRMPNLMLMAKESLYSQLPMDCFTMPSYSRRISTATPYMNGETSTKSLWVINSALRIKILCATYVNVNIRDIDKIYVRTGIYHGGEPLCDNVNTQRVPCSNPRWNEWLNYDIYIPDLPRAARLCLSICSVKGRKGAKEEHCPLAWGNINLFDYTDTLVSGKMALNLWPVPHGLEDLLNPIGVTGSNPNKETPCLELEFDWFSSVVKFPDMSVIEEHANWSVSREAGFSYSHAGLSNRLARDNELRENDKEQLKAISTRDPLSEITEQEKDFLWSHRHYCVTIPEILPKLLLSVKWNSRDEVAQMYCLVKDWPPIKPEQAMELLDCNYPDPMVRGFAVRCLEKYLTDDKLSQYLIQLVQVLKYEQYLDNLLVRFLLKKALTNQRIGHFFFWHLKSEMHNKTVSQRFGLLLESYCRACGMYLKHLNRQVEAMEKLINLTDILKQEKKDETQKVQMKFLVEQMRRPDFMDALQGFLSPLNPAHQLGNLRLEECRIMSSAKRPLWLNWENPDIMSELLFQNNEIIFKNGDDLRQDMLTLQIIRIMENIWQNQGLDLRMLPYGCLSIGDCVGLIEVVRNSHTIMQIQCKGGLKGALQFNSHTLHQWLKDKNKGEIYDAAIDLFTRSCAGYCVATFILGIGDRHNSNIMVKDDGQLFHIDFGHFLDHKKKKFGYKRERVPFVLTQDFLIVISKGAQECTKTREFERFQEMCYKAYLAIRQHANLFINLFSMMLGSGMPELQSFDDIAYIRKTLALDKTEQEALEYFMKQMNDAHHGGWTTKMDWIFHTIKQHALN
Outline: as §1

[6] = target: PLK2 (Homo sapiens, UniProt Q9NYY3)
Outline: as §1

[7] = target: MST1R (Homo sapiens, UniProt Q04912)
Outline: as §1

[8] = target: T2, PIP5K2B (Homo sapiens, UniProt P78356)
T2 construct: gene PIP4K2B
Outline: as §1

[9] = target: T3, MRCKA (Homo sapiens, UniProt Q5VT25)
T3 construct: gene CDC42BPA
Outline: as §1

[10] = target: EPHA3 (Homo sapiens, UniProt P29320)
Outline: as §1

[11] = target: DDR2 (Homo sapiens, UniProt Q16832)
Outline: as §1

[12] = target: SYK (Homo sapiens, UniProt P43405)
Outline: as §1

[13] = target: T4, ABL1(Q252H)-nonphosphorylated (Homo sapiens, UniProt P00519, Q252H)
T4 construct: nonphosphorylated
Outline: as §1

[14] = target: INSR (Homo sapiens, UniProt P06213)
Outline: as §1

[15] = target: T5, NDR1 (Homo sapiens, UniProt Q15208)
T5 construct: gene STK38
T5 sequence (Q15208 whole entry): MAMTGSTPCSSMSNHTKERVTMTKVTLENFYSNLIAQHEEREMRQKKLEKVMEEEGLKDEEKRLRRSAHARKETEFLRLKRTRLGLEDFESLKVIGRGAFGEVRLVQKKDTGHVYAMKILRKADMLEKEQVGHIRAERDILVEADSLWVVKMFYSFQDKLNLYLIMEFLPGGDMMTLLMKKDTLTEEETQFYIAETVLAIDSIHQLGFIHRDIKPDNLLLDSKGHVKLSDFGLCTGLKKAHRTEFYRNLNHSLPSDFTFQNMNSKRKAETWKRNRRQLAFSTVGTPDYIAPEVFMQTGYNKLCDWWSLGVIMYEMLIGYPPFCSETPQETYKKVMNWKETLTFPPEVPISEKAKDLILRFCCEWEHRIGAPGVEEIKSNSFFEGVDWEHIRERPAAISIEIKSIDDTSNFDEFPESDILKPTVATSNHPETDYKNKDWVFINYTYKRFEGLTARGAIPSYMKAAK
Outline: as §1

[16] = target: PAK3 (Homo sapiens, UniProt O75914)
Outline: as §1

[17] = target: NEK1 (Homo sapiens, UniProt Q96PY6)
Outline: as §1

[18] = target: T6, MEK1 (Homo sapiens, UniProt Q02750)
T6 construct: gene MAP2K1
T6 sequence (Q02750 whole entry): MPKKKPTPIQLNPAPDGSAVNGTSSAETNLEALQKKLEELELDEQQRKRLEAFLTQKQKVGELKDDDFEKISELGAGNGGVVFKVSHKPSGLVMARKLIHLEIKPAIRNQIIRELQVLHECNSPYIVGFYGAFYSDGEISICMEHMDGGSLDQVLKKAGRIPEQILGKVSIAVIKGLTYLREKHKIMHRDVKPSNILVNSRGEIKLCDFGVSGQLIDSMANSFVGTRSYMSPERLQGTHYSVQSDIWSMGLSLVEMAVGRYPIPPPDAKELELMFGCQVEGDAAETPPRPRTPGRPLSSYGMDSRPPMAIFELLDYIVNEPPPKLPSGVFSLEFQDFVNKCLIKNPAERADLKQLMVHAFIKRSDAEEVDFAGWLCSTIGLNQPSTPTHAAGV
Outline: as §1

[19] = target: CDK4 (Homo sapiens, UniProt P11802)
Chain of CDK4 (P11802 whole entry): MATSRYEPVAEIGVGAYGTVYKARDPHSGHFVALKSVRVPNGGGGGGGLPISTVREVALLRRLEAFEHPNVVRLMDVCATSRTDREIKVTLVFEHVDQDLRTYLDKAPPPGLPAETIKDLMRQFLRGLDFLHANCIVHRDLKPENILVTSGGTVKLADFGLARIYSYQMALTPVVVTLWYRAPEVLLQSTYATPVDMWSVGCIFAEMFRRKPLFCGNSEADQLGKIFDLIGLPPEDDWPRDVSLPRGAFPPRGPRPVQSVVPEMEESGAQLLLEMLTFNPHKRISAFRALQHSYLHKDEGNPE
Outline: as §1

[20] = target: TSSK1B (Homo sapiens, UniProt Q9BXA7)
Outline: as §1

[21] = target: PKN2 (Homo sapiens, UniProt Q16513)
Outline: as §1

[22] = target: KIT(L576P) (Homo sapiens, UniProt P10721, L576P)
Outline: as §1

[23] = target: ROS1 (Homo sapiens, UniProt P08922)
Outline: as §1

[24] = target: GRK1 (Homo sapiens, UniProt Q15835)
Chain of GRK1 (Q15835 whole entry): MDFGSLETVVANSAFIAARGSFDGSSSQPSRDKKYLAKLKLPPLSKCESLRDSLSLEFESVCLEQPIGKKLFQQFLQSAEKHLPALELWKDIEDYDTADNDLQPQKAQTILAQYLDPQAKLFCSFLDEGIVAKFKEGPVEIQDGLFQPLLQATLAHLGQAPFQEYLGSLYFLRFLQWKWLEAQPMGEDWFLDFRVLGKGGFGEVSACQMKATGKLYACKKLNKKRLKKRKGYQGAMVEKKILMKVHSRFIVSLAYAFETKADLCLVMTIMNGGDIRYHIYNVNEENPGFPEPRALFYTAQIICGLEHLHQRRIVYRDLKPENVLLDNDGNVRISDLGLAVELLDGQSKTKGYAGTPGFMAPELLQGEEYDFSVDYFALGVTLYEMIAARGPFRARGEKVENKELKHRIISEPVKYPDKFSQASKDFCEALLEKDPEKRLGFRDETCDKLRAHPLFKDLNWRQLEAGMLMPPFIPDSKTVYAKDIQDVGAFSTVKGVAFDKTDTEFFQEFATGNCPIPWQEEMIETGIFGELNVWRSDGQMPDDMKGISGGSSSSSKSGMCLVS
Outline: as §1

[25] = target: RIOK3 (Homo sapiens, UniProt O14730)
Chain of RIOK3 (O14730 whole entry): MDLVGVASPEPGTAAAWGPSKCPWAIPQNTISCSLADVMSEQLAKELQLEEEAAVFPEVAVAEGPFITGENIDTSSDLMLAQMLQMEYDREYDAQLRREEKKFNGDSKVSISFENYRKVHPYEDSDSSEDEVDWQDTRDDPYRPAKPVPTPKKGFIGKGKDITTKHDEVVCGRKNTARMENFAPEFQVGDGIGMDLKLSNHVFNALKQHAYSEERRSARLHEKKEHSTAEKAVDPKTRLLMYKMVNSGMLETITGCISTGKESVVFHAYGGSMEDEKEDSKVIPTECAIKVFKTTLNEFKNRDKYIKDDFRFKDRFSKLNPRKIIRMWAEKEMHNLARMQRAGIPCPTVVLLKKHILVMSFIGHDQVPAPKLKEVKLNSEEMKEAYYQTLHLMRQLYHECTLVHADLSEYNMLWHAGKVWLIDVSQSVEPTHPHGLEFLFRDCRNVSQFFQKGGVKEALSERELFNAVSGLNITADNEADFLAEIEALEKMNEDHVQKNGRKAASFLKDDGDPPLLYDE
Outline: as §1

SMILES: CNS(=O)(=O)c1ccc(N(C)C)c(Nc2nc(C)nc3cc(OC)c(OC)cc23)c1 [compound 15, 3-((6,7-dimethoxy-2-methylquinazolin-4-yl)amino)-4-(dimethylamino)-N-methylbenzenesulfonamide]
- inhibition at 1 µM [1]: 28%
- inhibition at 1 µM [2]: 2%
- inhibition at 1 µM [3]: 32%
- inhibition at 1 µM [4]: 13%
- inhibition at 1 µM [5]: 13%
- inhibition at 1 µM [6]: 23%
- inhibition at 1 µM [7]: 9%
- inhibition at 1 µM [8]: 0%
- inhibition at 1 µM [9]: 0%
- inhibition at 1 µM [10]: 2%
- inhibition at 1 µM [11]: 38%
- inhibition at 1 µM [12]: 0%
- inhibition at 1 µM [13]: 33%
- inhibition at 1 µM [14]: 11%
- inhibition at 1 µM [15]: 13%
- inhibition at 1 µM [16]: 4%
- inhibition at 1 µM [17]: 1%
- inhibition at 1 µM [18]: 18%
- inhibition at 1 µM [19]: 21%
- inhibition at 1 µM [20]: 9%
- inhibition at 1 µM [21]: 0%
- inhibition at 1 µM [22]: 0%
- inhibition at 1 µM [23]: 0%
- inhibition at 1 µM [24]: 20%
- inhibition at 1 µM [25]: 0%
